Values joined by “and” are separate entries in the source; they are usually repeats but may differ in a detail not shown here. Equal values may be shown once.
Columns and labels:
[1] = system: HIV-1 pseudotyped Mo-MLV virus; test: Infection of CEM cells by HIV-1 pseudotyped Mo-MLV virus (p24); details: p24 at 48 hours p.i., AZT 5 μM, TASP 5 μM
Description: CEM cells (2×10^5) were infected with the HIV-1 pseudoryped Mo-MLV virus (Experimental procedure) at 95 ng of p24/ml, in the absence (histogram Control) or presence of different additions (as indicated). The infection was monitored by the production of p24, which was measured in the culture supernatant at 48 hours p.i. The mean±SD of duplicate samples is given. Treatment of cells with the different antibodies was as in FIG. 6 +L. For a control of infection, cells were pretreated with 5 μM AZT before infection.
Hela cells were cotransfected by electroporation with plasmids pNL4-3 defective in env gene (Borman et al., 1995) and pE4070A expressing amphotrope envelope glycoproteins of Mo-MLV (Battini et al., 1996). Electroporation (Schwartz et al., 1996) was performed at 200 V, 960 μF, using a 4 mm wide cuvettes in a BIO-Rad Gene Pulser. The pseudotyped virus was recovered from the culture supernatant after 48 hours of culturing.

HIV-1 Lai = test: HIV entry into HeLa P4 / P4-C5 cells (β-galactosidase activity), HIV-1 Lai; type: cell-based
VSV/HIV = type: cell-based
HIV-1 JRCSF = test: HIV entry into HeLa P4-C5 cells (β-galactosidase), HIV-1 JRCSF; type: cell-based; details: HIV-1 JRCSF; heparin 1, 5, 10 μg/ml
HIV-1 Bal = test: HIV entry into HeLa P4-C5 cells (β-galactosidase), HIV-1 Ba-L; type: cell-based; details: HIV-1 Ba-L; heparin; mAb a-V3 5 μg/ml
[2] = system: HIV-1 AZT resistant, Saquinavir resistant, Nevirapine resistant; test: Entry of HIV-1 isolates resistant to antiviral drugs into HeLa cells (β-galactosidase); type: cell-based; details: heparin 5 mg/ml
Description: HIV entry and replication, results in the activation of the HIV LTR, leading to the expression of the lacZ gene. Therefore, at 24 and 48 hours post-infection, the β-galactosidase activity could be measured in cell extracts directly. Consequently, this latter technique could be used to monitor HIV entry into cells. The HIV dose used corresponded to the amount of virus containing 20-40 ng/ml of p24.
In these experiments, the background values of the β-galactosidase activity were assesed by the samples incubated with the a-CD4 mAb. Furthermore, the effect of heparin (5 mg/ml) was investigated.

SIVmac = SIVmac entry into HeLa cells (β-galactosidase); type: cell-based, SIV; details: β-galactosidase at 48 hours
HIV-2 ROD = test: HIV entry into HeLa P4-C5 cells (β-galactosidase), HIV-2 ROD; type: cell-based; details: heparin 1, 5, 10 μg/ml
HIV-1 Ada-M = HIV-1 Ada-M entry into HeLa P4-C5 cells (β-galactosidase); type: cell-based; details: HeLa P4-C5, β-galactosidase at 48 hours
Description: HeLa cells (P4-C5) were treated (incubation at 37° C., 30 min) with AZT (5 μM), (α-CD4 mAb CBT4 (5 μg/ml) before infection with the different HIV isolates in order to obtain the background β-galactosidase activity compared to untreated cells (Control). During the same time, the different HIV isolates were treated (incubation at room temperature, 15 min) with 1, 5, and 10 μg/ml of heparin before addition to untreated cells. The b-galactosidase activity was assayed at 48 hours post-infection as a measure of HIV entry (3 +L7).

[3] = system: V3 loop-BPs (nucleolin, PHAP II, PHAP I); test: BIAcore biosensor binding to immobilized V3 loop-BPs; parameters: species or system human; details: for equilibrium affinity constant Ka: binding to the V3 loop-BPs; for Ka (equilibrium affinity constant) / ka (association rate constant) / kd (dissociation rate constant): binding protein(s) V3 loop-BPs, BIAcore
V3 loop-BPs [4] = test: ELISA binding of proteins to coated V3 loop-BPs; parameters: species or system human; details: gp120 1 ng/ml, gp41 2 ng/ml, histone H3
Description: This is an ELISA-type experiment using the purified preparation of the V3 loop-BPs which was as described in FIG. 2 +L. The purified preparation of the V3 loop-BPs at different concentrations (12;5 to 200 ng/ml; abscissa) was coated to the plate before incubation with either gp120 (at 1 ng/ml; ), gp41 (at 2 ng/ml;), or histone H3 (1 μg/ml;). […] As a control mAb, we used mAb OKT4A specific for CD4. The abscissa gives the concentration of V3 loop-BPs in ng/ml. The ordinate gives the optical density (OD) values measured at 450 nm as an indicator of reactivity. An OD value less than 0.2 was considered as not significant. mAb OKT4A at 1 mg/ml gave an OD value of 0.20 when used in wells preincubated with either gp120, gp41, or histone H3. Rabbit antiserum against CXCR4 at dilutions as low as 1:200 generated an OD value of 0.15.
The resulting absorbance was measured at 450 nm.

CD4 = CD4 (Homo sapiens, UniProt P01730); test: BIAcore biosensor binding to soluble CD4; details: binding protein soluble recombinant CD4, BIAcore
V3 loop-BPs [5] = test: Inhibition of 5[Kψ(CH2N)PR]-TASP binding to the V3 loop-BPs (biosensor); parameters: species or system human; details: read-out: IC50 for the inhibition of 5[Kψ(CH2N)PR]-TASP binding to the V3 loop-BPs, increasing concentrations of gp120 HIV-1 Lai

Compound | equilibrium affinity constant Ka [3] | Ka (equilibrium affinity constant) (CD4) | ka (association rate constant) (CD4) | kd (dissociation rate constant) (CD4) | Ka (equilibrium affinity constant) [3] | ka (association rate constant) [3] | kd (dissociation rate constant) [3] | other results
Cc1cn([C@H]2C[C@H](N=[N+]=[N-])[C@@H](CO)O2)c(=O)[nH]c1=O [AZT, reference compound] | – | – | – | – | – | – | – | effect on infection by HIV-1 pseudotyped Mo-MLV virus [1]: inhibited; inhibition of HIV infection monitored by the production of p24 (HIV-1 Lai; AZT 5 μM): more than 99%; effect on VSV-HIV pseudotyped virus entry and replication (VSV/HIV): inhibited
Heparin [reference compound] | – | – | – | – | – | – | – | effect on viral entry (β-galactosidase activity at 48 hours post-infection) (HIV-1 JRCSF): no significant effect; effect on viral entry (β-galactosidase activity at 48 hours post-infection) (HIV-1 Bal): no significant effect; effect on entry of drug-resistant HIV-1 isolates [2]: drastically inhibited; effect on SIVmac entry (SIVmac): inhibits; effect on viral entry (β-galactosidase activity at 48 hours post-infection) (HIV-2 ROD): inhibits; effect on viral entry (β-galactosidase activity at 48 hours post-infection) (HIV-1 Lai; HIV-1 LAI, heparin 1, 5, 10 μg/ml, mAb a-V3 5 μg/ml): inhibits; effect on HIV-1 Ada-M entry (HIV-1 Ada-M): inhibits
NCTRPNNNRKSIRIQRGPGRAFVTIGKIGNMRQAHCNIS [V3 loop-Lai, synthetic V3 loop peptide of T-cell tropic HIV-1 Lai] | 5.1e+06 M⁻¹ | – | – | – | – | – | – | –
NCTRPNNNTRKSIHIGPGRAFYTGEIIGDIRQAHCNLS [V3 loop-Ba-L, synthetic V3 loop peptide of macrophage-tropic HIV-1 Ba-L] | 1.5e+06 M⁻¹ | – | – | – | – | – | – | –
gp120 HIV-1 Lai: recombinant external envelope glycoprotein of HIV-1 Lai | 2.1e+08 M⁻¹ | 1.08e+09 M⁻¹ | 5.88 × 10^5 M^−1S^−1 | 54.50 × 10^−3 S^−1 | 2.1e+08 M⁻¹ | 4.40 × 10^5 M^−1S^−1 | 2.10 × 10^−3 S^−1 | binding to the purified V3 loop-BPs in ELISA (V3 loop-BPs [4]): bind in a dose-dependent manner; IC50 (V3 loop-BPs [5]): ~3 nM
gp120 HIV-1 MN: recombinant gp120 of HIV-1 MN | 4.3e+08 M⁻¹ | 7.7e+08 M⁻¹ | 2.98 × 10^5 M^−1S^−1 | 38.60 × 10^−3 S^−1 | 4.3e+08 M⁻¹ | 1.90 × 10^5 M^−1S^−1 | 0.44 × 10^−3 S^−1 | –
gp120 HIV-1 SF2 2/3: nonglycosylated form of gp120 of HIV-1 SF2 (Env 2-3) | 1.6e+08 M⁻¹ | – | – | – | 1.6e+08 M⁻¹ | 3.80 × 10^5 M^−1S^−1 | 2.40 × 10^−3 S^−1 | –
gp120 HIV-1 SF2: recombinant gp120 of HIV-1 SF2 produced in CHO cells | 2.3e+09 M⁻¹ | 2.1e+08 M⁻¹ | 11.50 × 10^5 M^−1S^−1 | 5.60 × 10^−3 S^−1 | 2.32e+09 M⁻¹ | 0.65 × 10^5 M^−1S^−1 | 0.028 × 10^−3 S^−1 and 0.03 × 10^−3 S^−1 | –

Source: US20020076693A1, “Novel cell surface receptor for HIV retroviruses, therapeutic and diagnostic uses” (priority 1997, published 2002)
